For this test, the target named is human TMEM16A (TMEM16Aabc variant) (Homo sapiens, UniProt Q5XXA6, DEL476-501, form not given). Briefly: Automated whole-cell patch clamp (Qpatch) TMEM16A potentiator assay in FRT cells stably expressing human TMEM16A. Format: cell-based. Particulars: for % Potentiation @ 3.33 μM Avg: 3.33 μM solution of test compound, percentage increase of baseline TMEM16A current; for EC50: calculated EC50, Qpatch TMEM16A current at +70 mV. An excerpt: FIG. 1 is an example trace from a whole-cell patch clamp (Qpatch) TMEM16A potentiator assay as used in Biological Example 95 and illustrates the methodology used in the assay. In FIG. 1: S is Saline; V is Vehicle; #1 is Test Compound concentration #1; #2 is Test Compound concentration 2; #3 is Test Compound concentration 3; #4 is Test Compound concentration 4; #5 is Test Compound concentration #5; and R is Reference. The arrow in column V represents the baseline current, IBL. The arrows in each of the columns #1, #2, #3, #4, #5 and R represent I#[1], I#[2], I#[3], I#[4], I#[5] and I[Ref], which are the peak currents during the incubation periods for test compounds concentrations #1 to #5 and the Reference.
Chain of human TMEM16A (TMEM16Aabc variant) (Q5XXA6 with tags, fused parts or gaps DEL476-501): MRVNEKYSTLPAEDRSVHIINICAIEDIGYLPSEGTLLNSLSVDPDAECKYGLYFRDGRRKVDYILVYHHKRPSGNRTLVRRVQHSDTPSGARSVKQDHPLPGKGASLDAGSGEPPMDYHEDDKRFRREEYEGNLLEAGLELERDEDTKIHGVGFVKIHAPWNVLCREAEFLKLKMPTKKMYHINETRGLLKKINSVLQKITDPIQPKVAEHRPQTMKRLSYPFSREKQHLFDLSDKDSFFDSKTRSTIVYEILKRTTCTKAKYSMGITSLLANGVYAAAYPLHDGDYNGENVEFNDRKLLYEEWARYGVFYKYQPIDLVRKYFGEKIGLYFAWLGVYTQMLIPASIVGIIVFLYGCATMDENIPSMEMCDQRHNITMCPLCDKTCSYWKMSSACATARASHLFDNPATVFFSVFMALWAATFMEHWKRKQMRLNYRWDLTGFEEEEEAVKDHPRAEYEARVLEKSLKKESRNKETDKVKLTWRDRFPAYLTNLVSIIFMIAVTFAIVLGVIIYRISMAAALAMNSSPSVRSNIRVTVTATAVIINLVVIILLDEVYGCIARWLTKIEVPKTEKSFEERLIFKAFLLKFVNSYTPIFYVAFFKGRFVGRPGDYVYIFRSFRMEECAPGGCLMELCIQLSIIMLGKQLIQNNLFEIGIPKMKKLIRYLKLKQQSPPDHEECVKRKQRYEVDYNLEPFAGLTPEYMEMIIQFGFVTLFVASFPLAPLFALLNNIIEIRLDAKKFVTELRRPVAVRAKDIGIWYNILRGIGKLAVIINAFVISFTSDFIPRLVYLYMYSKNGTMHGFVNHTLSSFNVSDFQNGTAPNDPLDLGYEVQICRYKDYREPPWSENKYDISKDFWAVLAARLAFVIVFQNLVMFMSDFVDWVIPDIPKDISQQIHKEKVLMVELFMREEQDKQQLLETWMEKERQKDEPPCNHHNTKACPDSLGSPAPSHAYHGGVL
Fisher rat thyroid (FRT) cells stably expressing human TMEM16A (TMEM16Aabc variant; Dr Luis Galietta, Insituto Giannina, Italy) were cultured in T-75 flasks in Hams F-12 media with Coon's modification (Sigma) supplemented with 10% (v/v) foetal bovine serum, penicillin-streptomycin (10,000 U/mL/10000 μg/mL), G-418 (750 μg/mL), L-glutamine (2 mM) and sodium bicarbonate solution (7.5% v/v). At ˜90% confluence cells were harvested for experiments by detachment with a 2:1 (v/v) mixture of Detachin (BMS Biotechnology) and 0.25% (w/v) trypsin-EDTA. Cells were diluted to a density of 3.5-4.5×10^6 cells/mL with media consisting of CHO-S-SFM II (Sigma), 25 mM HEPES (Sigma) and Soy bean trypsin inhibitor (Sigma).
FRT-TMEM16A cells were whole-cell patch clamped using an automated planar patch clamp system (Qpatch, Sophion). Briefly, once high resistance (GOhm) seals were established between the cells and the planar recording array the patch was ruptured using suction pulses to establish the whole-cell recording configuration of the patch clamp technique. The assay employed the following solutions (all reagents Sigma): Intracellular solution (mM): N-methyl-D-glucamine 130, CaCl2 18.2, MgCl2 1, HEPES 10, EGTA 10, BAPTA 20, Mg-ATP 2, pH 7.25, 325 mOsm with sucrose.
Extracellular solution (mM): N-methyl-D-glucamine 130, CaCl2 2, MgCl2 1, HEPES 10, pH 7.3, 320 mOsm with sucrose.
The intracellular solution buffers intracellular calcium at levels required to give ˜20% activation of the maximal TMEM16A mediated current (EC20 for calcium ions). Cells were voltage clamped at a holding potential of −70 mV and a combined voltage step (to +70 mV)/ramp (−90 my to +90 mV) was applied at 0.05 Hz. After a period of current stabilisation test compounds, solubilised in 100% (v/v) DMSO and subsequently diluted into extracellular solution, were applied to generate a cumulative concentration response curve. Each concentration of test compound was incubated for 5 minutes before addition of the next concentration. After the final concentration was tested a supramaximal concentration of either a known active positive modulator or the TMEM16A inhibitor, CaCCinhA01 (Del La Fuente et al, 2008) was added to define the upper and lower limits of the assay.
Compound activity was quantified by measuring the increase in current upon compound addition and expressing this as a percentage increase of baseline TMEM16A current level. Percentage increases in current were determined for each concentration and the data plotted as a function of concentration using either the Qpatch software or Graphpad Prism v6.05 providing the concentration which gave 50% of its maximal effect (EC50) and maximum efficacy (percentage of baseline increase).
In FIG. 1, IBL equals baseline current, I[#1] equals the peak current during test compound concentration 1 incubation period and so on.
Peak TMEM16A current at +70 mV was plotted as a function of time over the assay period. Baseline current (IBL) was measured after a period of stabilisation. The increase in current for each compound addition was determined by taking the peak current during the incubation period and subtracting the current from the previous recording period and then expressing this as a percentage of the baseline current. […]

In general, EC50 refers to the concentration giving half of the maximal effect.

As to `O=C(Cc1cc(Cl)ccc1O)Nc1ccnc(C(=O)NC2(CO)CCOC2)c1` (racemic) [Example 35, 4-[[2-(5-Chloro-2-hydroxy-phenyl)acetyl]amino]-N-[3-(hydroxymethyl)tetrahydrofuran-3-yl]pyridine-2-carboxamide], the “% Potentiation @ 3.33 μM Avg” value turned out to be 180% and the EC50 is 190 nM. On to `CC(C#N)(CO)NC(=O)c1cc(NC(=O)Cc2cc(Cl)ccc2O)ccn1` (racemic) [Example 46, 4-[[2-(5-Chloro-2-hydroxy-phenyl)acetyl]amino]-N-(1-cyano-2-hydroxy-1-methyl-ethyl)pyridine-2-carboxamide], for which the “% Potentiation @ 3.33 μM Avg” value was 275% and the EC50 was 250 nM. For `CC(C)(C)NC(=O)c1cc(NC(=O)[C@@H]2CCc3ccccc32)ccn1` (single isomer, unassigned) [Example 21a, N-tert-Butyl-4-[[(1R)-indane-1-carbonyl]amino]pyridine-2-carboxamide or N-tert-Butyl-4-[[(1S)-indane-1-carbonyl]amino]pyridine-2-carboxamide] the same measures were 99% and 1570 nM. Consider `CC(C)(C)NC(=O)c1cc(NC(=O)[C@@H]2CCc3ccccc32)ccn1` (single isomer, unassigned) [Example 21b, N-tert-Butyl-4-[[(1R)-indane-1-carbonyl]amino]pyridine-2-carboxamide or N-tert-Butyl-4-[[(1S)-indane-1-carbonyl]amino]pyridine-2-carboxamide], for which the “% Potentiation @ 3.33 μM Avg” value is 164% and the EC50 was 1080 nM. Consider `O=C(Cc1cc(Cl)ccc1O)Nc1ccnc(C(=O)N[C@H]2CCCC[C@@H]2O)c1` (single isomer, unassigned) [Example 31.3a, 4-[[2-(5-Chloro-2-hydroxy-phenyl)acetyl]amino]-N-[(1S,2S)-2-hydroxycyclohexyl]pyridine-2-carboxamide or 4-[[2-(5-Chloro-2-hydroxy-phenyl)acetyl]amino]-N-[(1R,2R)-2-hydroxycyclohexyl]pyridine-2-carboxamide], for which the “% Potentiation @ 3.33 μM Avg” value is given as 238% and the EC50 is 550 nM. For the compound `O=C(Cc1cc(Cl)ccc1O)Nc1ccnc(C(=O)N[C@@]2(CO)CCOC2)c1` (single isomer, unassigned) [Example 35a, 4-[[2-(5-Chloro-2-hydroxy-phenyl)acetyl]amino]-N-[(3R)-3-(hydroxymethyl)tetrahydrofuran-3-yl]pyridine-2-carboxamide or 4-[[2-(5-chloro-2-hydroxy-phenyl)acetyl]amino]-N-[(3S)-3-(hydroxymethyl)tetrahydrofuran-3-yl]pyridine-2-carboxamide], the “% Potentiation @ 3.33 μM Avg” value stood at 137% and the EC50 was 100 nM. As for `O=C(Cc1cc(Cl)ccc1O)Nc1ccnc(C(=O)N[C@@]2(CO)CCOC2)c1` (single isomer, unassigned) [Example 35b, 4-[[2-(5-Chloro-2-hydroxy-phenyl)acetyl]amino]-N-[(3R)-3-(hydroxymethyl)tetrahydrofuran-3-yl]pyridine-2-carboxamide or 4-[[2-(5-chloro-2-hydroxy-phenyl)acetyl]amino]-N-[(3S)-3-(hydroxymethyl)tetrahydrofuran-3-yl]pyridine-2-carboxamide], the “% Potentiation @ 3.33 μM Avg” value is listed as 190% and the EC50 is 310 nM. As for `C[C@](C#N)(CO)NC(=O)c1cc(NC(=O)Cc2cc(Cl)ccc2O)ccn1` (single isomer, unassigned) [Example 46a, 4-[[2-(5-Chloro-2-hydroxy-phenyl)acetyl]amino]-N-[(1S)-1-cyano-2-hydroxy-1-methyl-ethyl]pyridine-2-carboxamide or 4-[[2-(5-chloro-2-hydroxy-phenyl)acetyl]amino]-N-[(1R)-1-cyano-2-hydroxy-1-methyl-ethyl]pyridine-2-carboxamide], the “% Potentiation @ 3.33 μM Avg” value is listed as 249% and the EC50 was 110 nM. For the compound `C[C@](C#N)(CO)NC(=O)c1cc(NC(=O)Cc2cc(Cl)ccc2O)ccn1` (single isomer, unassigned) [Example 46b, 4-[[2-(5-Chloro-2-hydroxy-phenyl)acetyl]amino]-N-[(1S)-1-cyano-2-hydroxy-1-methyl-ethyl]pyridine-2-carboxamide or 4-[[2-(5-chloro-2-hydroxy-phenyl)acetyl]amino]-N-[(1R)-1-cyano-2-hydroxy-1-methyl-ethyl]pyridine-2-carboxamide], the “% Potentiation @ 3.33 μM Avg” value turned out to be 215%. Take `CC(C)(C)NC(=O)c1cc(NC(=O)C2CCc3c(Cl)ccc(O)c32)ccn1` (single isomer, unassigned) [Example 57a, N-tert-butyl-4-[[(1S) or (1R)-4-chloro-7-hydroxy-indane-1-carbonyl]amino]pyridine-2-carboxamide]: the “% Potentiation @ 3.33 μM Avg” value is listed as 285% and the EC50 was 510 nM. Consider `CC(C)(C)NC(=O)c1cc(NC(=O)C2CCc3c(Cl)ccc(O)c32)ccn1` (single isomer, unassigned) [Example 57b, N-tert-butyl-4-[[(1S) or (1R)-4-chloro-7-hydroxy-indane-1-carbonyl]amino]pyridine-2-carboxamide], for which the “% Potentiation @ 3.33 μM Avg” value is listed as 162% and the EC50 was 670 nM. As for `CC(C)(C)NC(=O)c1cc(NC(=O)Cc2ccc3c(c2)OCCO3)ccn1` [Compound 5.32], the “% Potentiation @ 3.33 μM Avg” value was 285%.

Regarding `CC(C)(C)NC(=O)c1cc(NC(=O)Cc2ccccc2O)ccn1` [Example 1, N-tert-Butyl-4-[[2-(2-hydroxyphenyl)acetyl]amino]pyridine-2-carboxamide], the “% Potentiation @ 3.33 μM Avg” value was determined as 203% and the EC50 is 210 nM. In the case of `CCC(C)(C)NC(=O)c1cccc(NC(=O)Cc2ccccc2O)c1` [Example 1.1, N-(1,1-Dimethylpropyl)-3[[2-(2-hydroxyphenyl)acetyl]amino]benzamide], the “% Potentiation @ 3.33 μM Avg” value stood at 182% and the EC50 is 560 nM. As for `O=C(Cc1cc(Cl)ccc1O)Nc1cccc(C(=O)NC23CC4CC(CC(C4)C2)C3)c1` [Example 1.2, N-(1-Adamantyl)-3-[[2-(5-chloro-2-hydroxy-phenyl)acetyl]amino]benzamide], the “% Potentiation @ 3.33 μM Avg” value stood at 170% and the EC50 was 540 nM.

In the case of `O=C(Cc1cc(Cl)ccc1O)Nc1ccnc(C(=O)NC23CC4CC(CC(C4)C2)C3)c1` [Example 1.3, N-(1-Adamantyl)-4-[[2-(5-chloro-2-hydroxy-phenyl)acetyl]amino]pyridine-2-carboxamide], the “% Potentiation @ 3.33 μM Avg” value came to 233% and the EC50 is 240 nM. For `COCCC(C)(C)NC(=O)c1cc(NC(=O)Cc2cc(Cl)ccc2O)ccn1` [Example 1.4, 4-[[2-(5-Chloro-2-hydroxy-phenyl)acetyl]amino]-N-(3-methoxy-1,1-dimethyl-propyl)pyridine-2-carboxamide] the same measures were 195% and 400 nM.

In the case of `CCC(C)(C)NC(=O)c1cccc(NC(=O)Cc2cc(Cl)ccc2O)c1` [Example 1.5, 3-[[2-(5-Chloro-2-hydroxy-phenyl)acetyl]amino]-N-(1,1-dimethylpropyl)benzamide], the “% Potentiation @ 3.33 μM Avg” value came to 149% and the EC50 was 340 nM. As to `CC1(NC(=O)c2cc(NC(=O)Cc3cc(Cl)ccc3O)ccn2)CCC1` [Example 1.6, 4-[[2-(5-Chloro-2-hydroxy-phenyl)acetyl]amino]-N-(1-methylcyclobutyl)pyridine-2-carboxamide], the “% Potentiation @ 3.33 μM Avg” value was 255% and the EC50 was 60 nM.

(Values after patent US20200361871A1 (Enterprise Therapeutics Ltd., priority 2018, published 2020).)
